According to patent US4156777A, “Process for producing glucopyranose-nitrosourea compounds and novel compounds included therein” (Tokyo Tanabe Company, Limited, priority 1977, dated 1979):
Converted amounts (≈) assume the structure as drawn.

Key:
[1] = Effect on respiration, blood pressure, heart rate and electrocardiogram; assay type: in vivo, Beagle dogs; settings: dog, in vivo, iv; injected into brachial veins, anesthetized Beagle dogs; read-out: maximum dosage not effected on respiration, blood pressure, heart rate and electrocardiogram
Protocol: Beagle dogs of both sexes weighing about 10 kg were anesthetized with pentobarbital sodium (30 mg/kg, i.v.), and immobilized in the supine position. Test compounds dissolved in physiological saline solution were injected into the brachial veins of the animals and the arteries at cannulated positions were treated with heparin sodium as anticoagulant.
The respiration rate of each animal was estimated with a respirometer (Nihonkohden, RP-3) through a tracheal cannula, the blood pressure with an electro-haemodynamometer (Nihonkohden, MP-4T) attached surgically to the femoral artery, and the heart rate with a pulse-rate tachometer (Nihonkohden, RT-2) through the trigger pulse of the blood pressure.

[2] = Solubility in water at 25° C.; assay type: physicochemical; settings: amount soluble in 1 ml water at 25° C.
Acute toxicity (LD50) = assay type: in vivo, male Wister rats; settings: rat, in vivo, after 1 week
Protocol: Test compounds were dissolved in physiological saline solution just before their dosage and administered to male Wister rats, intraperitoneally, intravenously and orally. After 1 week, the LD50 of each compound was calculated from the mortality of the test animals by the Lichfield-Wilcoxon Method.
i.v.: intravenous administration

leukemia L-1210 = assay: Antitumor activity against leukemia L-1210 implanted in BDF1 mice (ILS, 60 days survivors); assay type: in vivo
Source text: Test compounds were given to BDF1 mice 24 hrs after implantation of 10^6 cells of leukemia L-1210 in each animal, through single intraperitoneal administration, intraperitoneal administration for 5 successive days, single oral administration or oral administration for 5 successive days, whereupon the increase in life span (referred to as "ILS") and number of 60 days survivors of test animals were estimated, said test of antitumor activity being that according to the method of the National Cancer Center, Tokyo [A. Hoshi et al: Farmashia, 9 (1973), 464]. In the tests, the compounds were dissolved in physiological saline solution just before administration.
^a i.p.: intraperitoneal administration p.o: oral administration
D1 : single administration D1~5 : administration for 5
^b percentage calculated from mean survival time over control
^c survivors/six animals

[3] = known compounds, generally seen; cited from earlier work
[4] = Diabetogenic activity (blood glucose concentration after intravenous administration); assay type: in vivo, male Wister rats
Protocol: 40-96 mg/kg of the test compounds were administered intravenously to starved male Wister rats weighing 240-260 g each, and the blood glucose concentrations of the test animals were estimated by the glucose exidase method [L. L. Saloman et al: Anal. Chem., 31 (1959), 453], in which test the compounds were dissolved in physiological saline solution just before administration. […]

## CO[C@H]1O[C@H](CO)[C@@H](O)[C@H](O)[C@H]1NC(=O)N(CCCl)N=O [Example 2MCαG, 1-(2-chloroethyl)-3-(methyl α-D-glucopyranos-2-yl)-1-nitrosourea]
[1]
  NOAEL: 30 mg/kg
[2]
  solubility: 45 mg/mL (≈ 137 mM)
Acute toxicity (LD50); ip
  LD50 at 168 h: 48 mg/kg
Acute toxicity (LD50); po
  LD50 at 168 h: 49 mg/kg
Leukemia L-1210; 0.5 mg/kg/day, i.p. D1~5
  ILS: 15%
Leukemia L-1210; 1.0 mg/kg/day, i.p. D1~5
  ILS: 48%
Leukemia L-1210; 2.0 mg/kg/day, i.p. D1~5
  ILS: > 249%
  Survivors (60 days): 1/6
Leukemia L-1210; 2.0 mg/kg/day, p.o. D1~5
  ILS: > 143%
  Survivors (60 days): 1/6
Leukemia L-1210; 3.2 mg/kg/day, i.p. D1~5
  ILS: > 394%
  Survivors (60 days): 3/6
Leukemia L-1210; 3.2 mg/kg/day, p.o. D1~5
  ILS: > 246%
  Survivors (60 days): 2/6
Leukemia L-1210; 4.0 mg/kg/day, i.p. D1~5
  ILS: > 349%
  Survivors (60 days): 2/6
Leukemia L-1210; 6.3 mg/kg/day, i.p. D1
  ILS: > 128%
Leukemia L-1210; 6.3 mg/kg/day, i.p. D1~5
  ILS: > 198%
  Survivors (60 days): 1/6
Leukemia L-1210; 6.3 mg/kg/day, p.o. D1~5
  ILS: > 380%
  Survivors (60 days): 3/6
Leukemia L-1210; 8.0 mg/kg/day, i.p. D1
  ILS: > 432%
  Survivors (60 days): 3/6
Leukemia L-1210; 10.0 mg/kg/day, i.p. D1
  ILS: > 717%
  Survivors (60 days): 6/6
Leukemia L-1210; 10.0 mg/kg/day, i.p. D1~5
  ILS: > 190%
  Survivors (60 days): 1/6
Leukemia L-1210; 12.5 mg/kg/day, i.p. D1~5
  ILS: > 160%
  Survivors (60 days): 1.6 survivors/six animals
Leukemia L-1210; 12.5 mg/kg/day, p.o. D1~5
  ILS: > 211%
  Survivors (60 days): 2/6
Leukemia L-1210; 20.0 mg/kg/day, i.p. D1
  ILS: > 717%
  Survivors (60 days): 6/6
Leukemia L-1210; 20.0 mg/kg/day, i.p. D1~5
  ILS: 58%
Leukemia L-1210; 25.0 mg/kg/day, i.p. D1
  ILS: > 539%
  Survivors (60 days): 4/6
[3]
  diabetogenic activity, decreasing order: SZ>DCNU>GANU> 2MCαG≈6MCαG
[4]; 40 mg/kg i.v., 0 hr after treatment
  Blood Glucose Concentration: 71.0 mg/dL
[4]; 40 mg/kg i.v., 2 hr after treatment
  Blood Glucose Concentration: 73.5 mg/dL
[4]; 40 mg/kg i.v., 4 hr after treatment
  Blood Glucose Concentration: 70.6 mg/dL
[4]; 40 mg/kg i.v., 7 hr after treatment
  Blood Glucose Concentration: 72.3 mg/dL
[4]; 40 mg/kg i.v., 10 hr after treatment
  Blood Glucose Concentration: 68.3 mg/dL
[4]; 40 mg/kg i.v., 24 hr after treatment
  Blood Glucose Concentration: 72.7 mg/dL
[4]; 40 mg/kg i.v., 48 hr after treatment
  Blood Glucose Concentration: 70.4 mg/dL
[4]; 60 mg/kg i.v., 0 hr after treatment
  Blood Glucose Concentration: 70.4 mg/dL
[4]; 60 mg/kg i.v., 2 hr after treatment
  Blood Glucose Concentration: 74.2 mg/dL
[4]; 60 mg/kg i.v., 4 hr after treatment
  Blood Glucose Concentration: 68.2 mg/dL
[4]; 60 mg/kg i.v., 7 hr after treatment
  Blood Glucose Concentration: 68.7 mg/dL
[4]; 60 mg/kg i.v., 10 hr after treatment
  Blood Glucose Concentration: 67.5 mg/dL
[4]; 60 mg/kg i.v., 24 hr after treatment
  Blood Glucose Concentration: 73.8 mg/dL
[4]; 60 mg/kg i.v., 48 hr after treatment
  Blood Glucose Concentration: 70.8 mg/dL
[4]; i.v., rats
  blood glucose concentrations versus control, in words: substantially the same blood glucose concentrations as that in the control
